In data set [1] the test system is HepG2 cells. Nature of the data set: Intracellular lipid accumulation in steatic HepG2 cells (in vitro model of NAFLD), oil red O staining, OD 490 nm. Format: cell-based, human. As to conditions: steatic HepG2 cells treated with EPA/DHA, PCB 153 final concentration 50 μM, 24 hours at 37° C., versus DMSO alone. How it is done: Palmitic (C16:0) and oleic (C18:1) acids are the most abundant fatty acids in liver triglycerides in both normal subjects and patients with NAFLD. The human hepatocyte-derived cell line HepG2 cells were seeded in a 96 well plate at a density of 5000 cells/well on Day 1. […] Intracellular accumulation of lipids was detected and quantified by oil red O staining using spectrophotometry at wavelength 490 nm. Oil red O color intracellular lipids droplets after cell fixation with paraformaldehyde. Absence of cell death was confirmed using a colometric lactate dehydrogenase (LDH) assay. Lactate dehydrogenase (LDH) is a cytosolic enzyme present in many different types of cells. When the plasma membrane is damaged, LDH is released into cell culture media. The released LDH was quantified by a coupled enzymatic reaction using a LDH cytotoxicity kit, and following the procedure according to the manufacture's instruction.
To assess the effect of n-3 PUFA on experimental NAFLD, the HepG2cells were treated with EPA and DHA at a concentration of 100 μM (1:1), or with fatty acids-free bovine serum albumin (BSA), as a control, together with 1 mM Oleic/Palmitic acid for 24 hours. […] Intracellular accumulation of lipids was detected and quantified by oil red O staining using spectrophotometry at wavelength 490 nm. […]

In data set [2] the test system is male C57BL6/J mice. Conditions: PCB 153 exposure in high-fat-fed mice; not seen with HFD alone or PCB 153 alone; cited from earlier work.
The test system of data set [3] is mice. As to conditions: HFD+PCB 153 treated mice compared with HFD treatment alone; cited from earlier work.

In the case of `Clc1cc(Cl)c(-c2cc(Cl)c(Cl)cc2Cl)cc1Cl` [PCB 153, polychlorinated biphenyl 153], the “Effect on the benefit of n-3 PUFA (EPA/DHA) on development of steatosis (intracellular lipids, oil red O)” value in data set [1] is given as “diminish the beneficial effect”. Moreover, in data set [2], the “Visceral adiposity, hepatic steatosis, and plasma adipokines” value is given as “increased”. The “Reduction of hepatic glutathione” value in data set [3] was 6 fold.
